In patent publication US20150315188A1, “COMPOUNDS AND METHODS FOR TREATMENT OF HYPERTENSION” (MEDIVATION TECHNOLOGIES, INC., priority 2012, published 2015):

Molecular target: T1, Human adrenergic α1B receptor (Homo sapiens, UniProt P35368)
T1 sequence (P35368 1-520): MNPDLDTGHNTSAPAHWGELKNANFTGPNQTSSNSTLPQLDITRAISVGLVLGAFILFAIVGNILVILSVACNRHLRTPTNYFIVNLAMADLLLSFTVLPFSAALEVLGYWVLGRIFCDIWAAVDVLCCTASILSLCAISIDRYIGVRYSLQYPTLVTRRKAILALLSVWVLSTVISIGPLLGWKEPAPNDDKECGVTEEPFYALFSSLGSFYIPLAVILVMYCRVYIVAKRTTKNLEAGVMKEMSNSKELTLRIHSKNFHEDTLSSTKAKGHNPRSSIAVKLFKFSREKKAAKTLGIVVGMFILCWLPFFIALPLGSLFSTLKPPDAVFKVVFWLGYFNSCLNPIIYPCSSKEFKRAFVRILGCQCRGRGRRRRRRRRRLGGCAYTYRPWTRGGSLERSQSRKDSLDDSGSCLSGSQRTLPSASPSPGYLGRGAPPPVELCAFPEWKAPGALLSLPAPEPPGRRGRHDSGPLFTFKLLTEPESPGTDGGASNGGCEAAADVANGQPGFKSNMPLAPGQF
Assay: Radioligand binding, adrenergic α1B (Protocol Group B)
Set-up: purchased Milipore (Millipore)
Settings: 0.1 μM compound; Protocol Group B; 0.1 µM
Method in brief: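 Values are percent inhibition of specific [3H]prazosin (0.3 nM) binding or estimated Ki, from filtration counting. Human α1B recombinant membranes, Tris-HCl pH 7.4 buffer with MgCl2 and EDTA, 60 min at 25 °C, 1% DMSO vehicle; 10 μM prazosin defined nonspecific binding.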

For `Cc1ccc2c(c1)c1c(n2CC(OC2CCCC2)c2ccncc2)CCN(C)C1` (single isomer, unassigned) [35b], which “Percentage inhibition of ligand binding, Adrenergic α1B (0.1 μM)” value is on record?
Its value is 5%.

With `CC(O)(Cn1c2c(c3cc(F)cc(Cl)c31)C1CCCN1CC2)c1ccncc1` (single isomer, unassigned) [88b] as the compound, how does the “Percentage inhibition of ligand binding, Adrenergic α1B (0.1 μM)” value read?
The value was −1%.

Same assay, conditions: 0.1 μM compound; Protocol Group B; read-out: Percentage inhibition of ligand binding, Adrenergic α1B (0.1 μM)

For `Cc1cc(F)c2c(c1)c1c(n2CC(C)(O)c2cccnc2)CC2CCCN2C1` (single isomer, unassigned) [61c], which inhibition at 0.1 µM is on record?
The inhibition at 0.1 µM was 4%.

Same assay, conditions: 0.3 μM compound; Protocol Group B; 0.3 µM

`Cc1ccc2c(c1)c1c(n2CC(OC2CCCC2)c2ccncc2)CCN(C)C1` (single isomer, unassigned) [35b] was tested. Which “Percentage inhibition of ligand binding, Adrenergic α1B (0.3 μM)” value did it give?
Its value is 17%.

Which “Percentage inhibition of ligand binding, Adrenergic α1B (0.3 μM)” value does the source give for `CC(O)(Cn1c2c(c3cc(F)cc(Cl)c31)C1CCCN1CC2)c1ccncc1` (single isomer, unassigned) [88b] here?
The value was 33%.

Same assay, conditions: 0.3 μM compound; Protocol Group B; read-out: Percentage inhibition of ligand binding, Adrenergic α1B (0.3 μM)

How did the inhibition at 0.3 µM turn out when `Cc1cc(F)c2c(c1)c1c(n2CC(C)(O)c2cccnc2)CC2CCCN2C1` (single isomer, unassigned) [61c] was run?
Its inhibition at 0.3 µM is 15%.

Same assay, conditions: Protocol Group B; estimated Ki

With `Cc1ccc2c(c1)c1c(n2CC(OC2CCCC2)c2ccncc2)CCN(C)C1` (single isomer, unassigned) [35b] as the compound, how does the Ki read?
The Ki was 456 nM.

Molecular target: T2, Human adrenergic α2B receptor (Homo sapiens, UniProt P18089)
T2 sequence (P18089 1-450): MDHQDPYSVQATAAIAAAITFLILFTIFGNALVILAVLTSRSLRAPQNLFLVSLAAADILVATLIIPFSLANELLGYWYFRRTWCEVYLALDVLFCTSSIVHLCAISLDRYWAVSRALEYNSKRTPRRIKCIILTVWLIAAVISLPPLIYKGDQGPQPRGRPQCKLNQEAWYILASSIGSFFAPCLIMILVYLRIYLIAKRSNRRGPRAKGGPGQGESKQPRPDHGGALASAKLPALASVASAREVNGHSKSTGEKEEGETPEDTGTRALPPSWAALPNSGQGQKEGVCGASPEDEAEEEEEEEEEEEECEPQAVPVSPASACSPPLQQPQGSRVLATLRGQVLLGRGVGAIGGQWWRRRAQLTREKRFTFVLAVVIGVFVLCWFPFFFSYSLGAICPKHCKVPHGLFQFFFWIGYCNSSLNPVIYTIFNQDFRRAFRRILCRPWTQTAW
Assay: Radioligand binding, adrenergic α2B (Protocol Group B)
Set-up: purchased Milipore (Millipore)
Settings: 10 nM compound; Protocol Group B; 0.01 µM
Method in brief: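 Compounds at various concentrations in 1% DMSO were tested on recombinant membranes in Tris-HCl pH 7.4 buffer containing MgCl2, CaCl2 and 0.2% BSA.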

Which “Percentage inhibition of ligand binding, Adrenergic α2B (10 nM)” value does the source give for `Cc1ccc2c(c1)c1c(n2CC(OC2CCCC2)c2ccncc2)CCN(C)C1` (single isomer, unassigned) [35b] here?
The value was 65%.

Which “Percentage inhibition of ligand binding, Adrenergic α2B (10 nM)” value does the source give for `CC(O)(Cn1c2c(c3cc(F)cc(Cl)c31)C1CCCN1CC2)c1ccncc1` (single isomer, unassigned) [88b] here?
Its value is 70%.

Same assay, conditions: 10 nM compound; Protocol Group B; read-out: Percentage inhibition of ligand binding, Adrenergic α2B (10 nM)

How did the inhibition at 0.01 µM turn out when `Cc1cc(F)c2c(c1)c1c(n2CC(C)(O)c2cccnc2)CC2CCCN2C1` (single isomer, unassigned) [61c] was run?
The inhibition at 0.01 µM was 51%.

Same assay, conditions: 30 nM compound; Protocol Group B

For `Cc1ccc2c(c1)c1c(n2CC(OC2CCCC2)c2ccncc2)CCN(C)C1` (single isomer, unassigned) [35b], which “Percentage inhibition of ligand binding, Adrenergic α2B (30 nM)” value is on record?
The value was 86%.

Same assay, conditions: 30 nM compound; Protocol Group B; 0.03 µM

With `CC(O)(Cn1c2c(c3cc(F)cc(Cl)c31)C1CCCN1CC2)c1ccncc1` (single isomer, unassigned) [88b] as the compound, how does the “Percentage inhibition of ligand binding, Adrenergic α2B (30 nM)” value read?
Its value is 90%.

Same assay, conditions: 30 nM compound; Protocol Group B; read-out: Percentage inhibition of ligand binding, Adrenergic α2B (30 nM)

Which inhibition at 0.03 µM does the source give for `Cc1cc(F)c2c(c1)c1c(n2CC(C)(O)c2cccnc2)CC2CCCN2C1` (single isomer, unassigned) [61c] here?
The inhibition at 0.03 µM was 77%.

Same assay, conditions: 0.1 μM compound; Protocol Group B

Which “Percentage inhibition of ligand binding, Adrenergic α2B (0.1 μM)” value does the source give for `Cc1ccc2c(c1)c1c(n2CC(OC2CCCC2)c2ccncc2)CCN(C)C1` (single isomer, unassigned) [35b] here?
The value was 96%.

Same assay, conditions: 0.1 μM compound; Protocol Group B; read-out: Percentage inhibition of ligand binding, Adrenergic α2B (0.1 μM)

`Cc1cc(F)c2c(c1)c1c(n2CC(C)(O)c2cccnc2)CC2CCCN2C1` (single isomer, unassigned) [61c] was tested. Which inhibition at 0.1 µM did it give?
The inhibition at 0.1 µM was 92%.

Same assay, conditions: Protocol Group B; estimated Ki; read-out: Ki α2B

For `Cc1cc(F)c2c(c1)c1c(n2CC(C)(O)c2cccnc2)CC2CCCN2C1` (single isomer, unassigned) [61c], which Ki is on record?
Its Ki is 5.4 nM.

How did the Ki turn out when `Cc1ccc2c(c1)c1c(n2CC(OC2CCCC2)c2ccncc2)CCN(C)C1` (single isomer, unassigned) [35b] was run?
Its Ki is 3.49 nM.

How did the Ki turn out when `CC(O)(Cn1c2c(c3cc(F)cc(Cl)c31)C1CCCN1CC2)c1ccncc1` (single isomer, unassigned) [88b] was run?
Its Ki is 2.85 nM.

Molecular target: T3, Human adrenergic α2A receptor (Homo sapiens, UniProt P08913)
T3 sequence (P08913 1-465): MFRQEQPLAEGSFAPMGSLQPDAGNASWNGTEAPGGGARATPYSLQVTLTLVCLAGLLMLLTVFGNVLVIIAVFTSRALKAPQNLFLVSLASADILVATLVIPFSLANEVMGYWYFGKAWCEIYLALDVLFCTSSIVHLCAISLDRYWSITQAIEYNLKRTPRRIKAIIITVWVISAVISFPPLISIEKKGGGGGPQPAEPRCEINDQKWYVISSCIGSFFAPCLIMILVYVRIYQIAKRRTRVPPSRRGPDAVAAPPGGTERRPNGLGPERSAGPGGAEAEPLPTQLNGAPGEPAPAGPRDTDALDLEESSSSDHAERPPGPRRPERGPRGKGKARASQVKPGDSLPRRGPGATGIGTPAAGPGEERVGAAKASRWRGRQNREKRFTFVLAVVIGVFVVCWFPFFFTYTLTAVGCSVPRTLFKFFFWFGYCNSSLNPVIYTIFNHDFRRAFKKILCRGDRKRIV
Assay: Radioligand binding, adrenergic α2A (Protocol Group B)
Set-up: purchased Milipore (Millipore)
Settings: 0.1 μM compound; Protocol Group B; 0.1 µM
Method in brief: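 Compounds (1% DMSO vehicle, various concentrations) competed against 2 nM [^3H]MK-912 on recombinant receptor membranes for 60 min at 25° C, Tris-HCl pH 7.4 buffer with Mg2+, Ca2+, BSA. Bound radioligand filtered and counted; 10 μM rauwolscine set nonspecific binding. Values: percent inhibition of specific binding or estimated Ki.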

Which “Percentage inhibition of ligand binding, Adrenergic α2A (0.1 μM)” value does the source give for `Cc1ccc2c(c1)c1c(n2CC(OC2CCCC2)c2ccncc2)CCN(C)C1` (single isomer, unassigned) [35b] here?
The value was 25%.

With `CC(O)(Cn1c2c(c3cc(F)cc(Cl)c31)C1CCCN1CC2)c1ccncc1` (single isomer, unassigned) [88b] as the compound, how does the “Percentage inhibition of ligand binding, Adrenergic α2A (0.1 μM)” value read?
The value was 19%.

Same assay, conditions: 0.1 μM compound; Protocol Group B; read-out: Percentage inhibition of ligand binding, Adrenergic α2A (0.1 μM)

For `Cc1cc(F)c2c(c1)c1c(n2CC(C)(O)c2cccnc2)CC2CCCN2C1` (single isomer, unassigned) [61c], which inhibition at 0.1 µM is on record?
The inhibition at 0.1 µM was 2%.

Same assay, conditions: 0.3 μM compound; Protocol Group B; 0.3 µM

Which “Percentage inhibition of ligand binding, Adrenergic α2A (0.3 μM)” value does the source give for `Cc1ccc2c(c1)c1c(n2CC(OC2CCCC2)c2ccncc2)CCN(C)C1` (single isomer, unassigned) [35b] here?
The value was 45%.

For `CC(O)(Cn1c2c(c3cc(F)cc(Cl)c31)C1CCCN1CC2)c1ccncc1` (single isomer, unassigned) [88b], which “Percentage inhibition of ligand binding, Adrenergic α2A (0.3 μM)” value is on record?
The value was 44%.

Same assay, conditions: 0.3 μM compound; Protocol Group B; read-out: Percentage inhibition of ligand binding, Adrenergic α2A (0.3 μM)

Which inhibition at 0.3 µM does the source give for `Cc1cc(F)c2c(c1)c1c(n2CC(C)(O)c2cccnc2)CC2CCCN2C1` (single isomer, unassigned) [61c] here?
The inhibition at 0.3 µM was 41%.

Same assay, conditions: Protocol Group B; estimated Ki

Which Ki does the source give for `Cc1ccc2c(c1)c1c(n2CC(OC2CCCC2)c2ccncc2)CCN(C)C1` (single isomer, unassigned) [35b] here?
The Ki was 241 nM.

Molecular target: T2, Human adrenergic α2B receptor
Assay: β-Arrestin GPCR functional assay, adrenergic α2B (Protocol B)
Assay type: cell-based
Settings: β-arrestin, antagonist vs nor-epinephrine EC80; read-out: IC50 Adrenergic α2B
Experimental: To evaluate the activity of compounds in β-Arrestin GPCR functional assays, recombinant CHO cell line (DiscoveRX), over expressed with human adrenergic α2B receptor were used. The experiment was done with kit of DiscoveRX as per recommended protocol of the supplier. Cells were harvested from culture flask using cell dissociation solution (CDS) and plated at a density of 12,000 cells/well in CP reagent (supplied with the kit) in a half area 96-well white polystyrene plate. After 24 h incubation at 37° C., compounds at various concentrations in 1% (final) DMSO were charged to the cells for 30 min at 37° C. Active nor-epinephrine (-NE) at its EC80 concentrations (50 nM) were then added to the cells and incubated for another 90 min at 37° C. Detection mix was prepared by mixing of Path Hunter cell assay buffer, Emerald II solution and Galactone star solution in a ratio of 19:5:1 and incubated with the cells for 60 min at RT in the dark. The reading was taken in Envision at luminescence mode. Biochemical assay results are presented as the percent Inhibition in Table B2a, or IC50 values in Table B2b.

For `Cc1cc(F)c2c(c1)c1c(n2CC(C)(O)c2cccnc2)CC2CCCN2C1` (single isomer, unassigned) [61c], which IC50 is on record?
The IC50 was 313 nM.

With `Cc1ccc2c(c1)c1c(n2CC(OC2CCCC2)c2ccncc2)CCN(C)C1` (single isomer, unassigned) [35b] as the compound, how does the IC50 read?
Its IC50 is 212 nM.

For `CC(O)(Cn1c2c(c3cc(F)cc(Cl)c31)C1CCCN1CC2)c1ccncc1` (single isomer, unassigned) [88b], which IC50 is on record?
The IC50 was 166 nM.
